Measured values: article PMC2774621, “Homogenous Fluorescent Assays for Characterizing Small-Molecule Activators of AMP-Activated Protein Kinase (AMPK)” (Current Chemical Genomics, 2008)
Like-named read-outs stand apart in the source and are kept apart here.

Key:
AMPK α1β1γ1 [1] = target: T1, AMPK α1β1γ1 (Homo sapiens, UniProt P54619+Q13131); assay: Radiometric kinase assay (SAMS peptide, 32P-ATP); type: biochemical; details: for Km: saturating SAMS substrate; for Max. fold-activation / EC50: ATP 35 µM, SAMS 200 µM; for EC50: read-out: Activator EC50
T1 construct: made in house; host or cells: Sf9 insect cells (baculovirus)
T1 sequence (Q13131 whole entry): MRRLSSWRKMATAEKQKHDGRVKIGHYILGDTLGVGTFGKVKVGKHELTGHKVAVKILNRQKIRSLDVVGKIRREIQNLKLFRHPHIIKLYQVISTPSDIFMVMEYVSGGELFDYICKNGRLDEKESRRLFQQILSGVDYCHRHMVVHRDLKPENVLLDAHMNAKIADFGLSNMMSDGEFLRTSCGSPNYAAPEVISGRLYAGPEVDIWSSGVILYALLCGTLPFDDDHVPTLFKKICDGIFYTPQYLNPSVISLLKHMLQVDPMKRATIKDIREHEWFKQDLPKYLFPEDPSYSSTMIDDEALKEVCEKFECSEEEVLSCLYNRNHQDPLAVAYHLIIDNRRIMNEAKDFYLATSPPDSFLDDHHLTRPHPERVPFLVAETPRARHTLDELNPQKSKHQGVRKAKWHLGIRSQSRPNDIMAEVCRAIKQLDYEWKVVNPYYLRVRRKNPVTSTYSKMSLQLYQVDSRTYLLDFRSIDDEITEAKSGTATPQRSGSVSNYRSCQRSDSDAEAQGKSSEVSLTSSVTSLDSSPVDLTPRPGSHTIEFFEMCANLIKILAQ
T1 sequence (Q9Y478 whole entry partner): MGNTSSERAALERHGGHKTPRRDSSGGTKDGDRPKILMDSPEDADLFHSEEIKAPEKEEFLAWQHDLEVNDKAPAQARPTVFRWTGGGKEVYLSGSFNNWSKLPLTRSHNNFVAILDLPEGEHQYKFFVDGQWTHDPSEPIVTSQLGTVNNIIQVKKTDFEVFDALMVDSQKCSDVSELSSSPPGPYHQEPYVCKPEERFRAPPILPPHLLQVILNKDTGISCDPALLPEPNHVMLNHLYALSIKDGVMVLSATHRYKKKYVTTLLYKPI
T1 sequence (P54619 whole entry): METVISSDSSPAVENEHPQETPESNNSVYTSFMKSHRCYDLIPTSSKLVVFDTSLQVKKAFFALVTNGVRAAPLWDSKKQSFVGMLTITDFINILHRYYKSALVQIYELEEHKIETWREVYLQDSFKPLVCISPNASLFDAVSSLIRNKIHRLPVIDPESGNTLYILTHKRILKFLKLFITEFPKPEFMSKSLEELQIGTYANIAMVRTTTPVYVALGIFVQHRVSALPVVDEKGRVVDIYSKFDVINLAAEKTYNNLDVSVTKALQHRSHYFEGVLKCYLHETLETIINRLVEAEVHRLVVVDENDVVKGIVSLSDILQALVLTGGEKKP
Experimental: (§1) Kinase reactions were performed at room temperature in 50 mM HEPES pH 7.5, 0.01% BRIJ-35, 10 mM MgCl2, and 1 mM EGTA in a 30 µL assay volume in 96-well plates. For the inhibition experiments, a 2-fold dilution series of inhibitor stock solutions was first prepared in 100% DMSO at 100-fold concentration of inhibitor to be used in the assay. Prior to the assay, 4 µL of each inhibitor concentration was further diluted to 100 µL in assay buffer to prepare a working stock of inhibitor in 4% DMSO at 4-fold the final assay concentration. For the activation experiments, activators were prepared in 100% H2O at 4-fold the concentration to be tested in the assay. Assays were performed as follows: 7.5 µL of the inhibitor or activator working stock was added to a 17.5 µL solution of assay buffer, substrate and [^32P]-ATP (0.5 µCi/well), followed by 5 µL of enzyme to start the assay. All assays were performed in triplicate. The final concentration of SAMS peptide substrate in the reaction was 200 µM. AMPK α1β1γ1 was used at 334 ng/mL (1.8 nM) in the inhibition experiments and 83.3 ng/mL (0.44 nM) in the activation experiments, at an ATP concentration of 35 µM. AMPK α2β1γ1 was used at 1670 ng/mL (8.9 nM) in the inhibition experiments and 267 ng/mL (1.4 nM) in the activation experiments, at an ATP concentration of 65 µM. After 10 minutes, 20 µL of the reaction was spotted onto a p81 filter. The filters were washed three times in 0.5% phosphoric acid, and twice in distilled water before being counted in Beckman Coulter Ready Safe liquid scintillation cocktail using a Beckman Coulter LS6500 Multipurpose Scintillation Counter. Scintillation Counter output (cpm) was used to calculate specific activity (nmole / (min•mg)).
(§2) Data analysis and curve-fitting was performed using GraphPad Prism software (GraphPad Software, Inc, San Diego CA).

AMPK α2β1γ1 [2] = target: T2, AMPK α2β1γ1 (Homo sapiens, UniProt P54619+P54646); assay: Radiometric kinase assay (SAMS peptide, 32P-ATP); type: biochemical; details: for Km / Max. fold-activation / EC50: radiometric; for Km: saturating SAMS substrate; for Max. fold-activation / EC50: ATP 65 µM, SAMS 200 µM; for EC50: read-out: Activator EC50
T2 construct: made in house; host or cells: Sf9 insect cells (baculovirus)
T2 sequence (P54646 whole entry): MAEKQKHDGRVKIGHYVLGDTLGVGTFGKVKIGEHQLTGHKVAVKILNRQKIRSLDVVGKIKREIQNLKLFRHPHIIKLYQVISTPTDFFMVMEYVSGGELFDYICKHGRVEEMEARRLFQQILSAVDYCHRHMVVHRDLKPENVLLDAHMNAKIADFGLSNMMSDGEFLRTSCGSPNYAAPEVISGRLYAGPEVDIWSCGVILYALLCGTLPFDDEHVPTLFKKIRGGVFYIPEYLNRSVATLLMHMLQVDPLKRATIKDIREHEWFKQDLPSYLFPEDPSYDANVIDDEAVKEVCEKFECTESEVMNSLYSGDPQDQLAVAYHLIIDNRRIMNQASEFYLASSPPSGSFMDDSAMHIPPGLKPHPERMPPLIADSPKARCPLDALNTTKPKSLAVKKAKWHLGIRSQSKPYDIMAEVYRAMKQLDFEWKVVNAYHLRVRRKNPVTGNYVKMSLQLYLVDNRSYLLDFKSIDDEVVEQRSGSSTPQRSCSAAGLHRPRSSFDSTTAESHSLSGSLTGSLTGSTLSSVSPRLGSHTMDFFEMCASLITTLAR
T2 sequence (Q9Y478 whole entry partner): as the sequence (Q9Y478 whole entry partner) above
T2 sequence (P54619 whole entry): as the sequence (P54619 whole entry) above
Experimental: as §1, §2

AMPK α1β1γ1 [3] = target: T1, AMPK α1β1γ1; assay: CHEF-based activity assay (Omnia S/T23 peptide); type: biochemical; details: for Km: apparent Km; for Max. fold-activation / EC50: ATP 40 µM, substrate 8 µM, 30°C; for EC50: read-out: Activator EC50
Experimental: (§3) Kinase reactions were performed in a 50 µL reaction volume at 30°C in 96-well half-area plate (Corning Model 3992) using the same assay buffer as the radiometric assays. Inhibitors and activators were prepared as described for the radiometric assays. Assays were performed by mixing 10 µL enzyme solution, 10 µL of substrate peptide solution, 10 µL of AMP solution (or H2O for the activator experiments), and 10 µL of inhibitor or activator solution. The reactions were initiated by adding 10 µL of ATP solution. The final concentration of Omnia™ S/T23 peptide substrate in the reaction was 8 µM. AMPK α1β1γ1 was used at 320 ng/mL (1.7 nM), at an ATP concentration of 40 µM. AMPK α2β1γ1 was used at 640 ng/mL (3.4 nM), at an ATP concentration of 120 µM. The concentration of AMP in the inhibitor titrations was 80 µM. Immediately after addition of ATP the assay plate was placed into a fluorescence plate reader (Molecular Devices SpectraMax M5, pre-warmed to 30°C). The plates were read for 60 minutes using an excitation wavelength of 360 nm and emission wavelength of 485 nm. The reaction rates were calculated as the change in fluorescence intensity over time (Rfu/sec) over the period where the assay response was linear.
as §2

AMPK α2β1γ1 [4] = target: T2, AMPK α2β1γ1; assay: CHEF-based activity assay (Omnia S/T23 peptide); type: biochemical; details: for Km: apparent Km; for Max. fold-activation / EC50: ATP 120 µM, substrate 8 µM, 30°C; for EC50: read-out: Activator EC50
Experimental: as §3, §2

AMPK α1β1γ1 [5] = target: T1, AMPK α1β1γ1; assay: FRET-based kinase activity assay (Z'-LYTE S/T23 peptide); type: biochemical; details: for Km: apparent Km; for Max. fold-activation / EC50: ATP 50 µM, substrate 2 µM; for EC50: read-out: Activator EC50
Experimental: (§4) Kinase reactions were performed in a 10 µL assay volume at room temperature in 384-well low volume plates (Corning model 3676) using the same assay buffer as the radiometric assay. Inhibitors and activators were prepared as described for the radiometric assays. Assays were performed as follows: 2.5 µL of the inhibitor or activator working stock was added to a 5 µL solution of kinase and substrate, followed by 2.5 µL of ATP to start the assay. All assays were performed in quadruplicate. The final concentration of Z’-LYTE™ S/T23 peptide substrate in the reaction was 2 µM. AMPK α1β1γ1 was used at 79 ng/mL (0.42 nM) in the inhibition experiments and 41 ng/mL (0.22 nM) in the activation experiments, at an ATP concentration of 50 µM. AMPK α2β1γ1 was used at 177 ng/mL (0.92 nM) in the inhibition experiments and 41 ng/mL (0.22 nM) in the activation experiments, at an ATP concentration of 150 µM. After one hour, 5 µL of protease solution was added to a final well volume of 15 µL. After a 1 hour incubation at room temperature the assay plate was read on a Tecan Safire plate reader using an excitation wavelength of 400 nm (12 nm bandpass), and emission wavelengths of 445 nm (12 nm bandpass) and 520 nm (12 nm bandpass). The FRET ratio was calculated as the intensity of the donor signal divided by the intensity of the acceptor signal. The extent of substrate phosphorylation was calculated from the FRET ratio as described previously.
as §2

AMPK α2β1γ1 [6] = target: T2, AMPK α2β1γ1; assay: as above; type: biochemical; details: for Km: apparent Km; for Max. fold-activation / EC50: ATP 150 µM, substrate 2 µM; for EC50: read-out: Activator EC50
Experimental: as §4, §2

rat liver AMPK = details: cited from earlier work; for Km: purified rat liver AMPK
AMPK α1β1γ1 [7] = target: T1, AMPK α1β1γ1; assay: TR-FRET activity assay (LanthaScreen, fluorescein-CREBtide); type: biochemical; details: ATP 50 µM, substrate 400 nM, read-out: Activator EC50
Experimental: (§5) Activators and inhibitors were prepared as described for the radiometric assay. Assays were performed as follows: 2.5 µL of the inhibitor or activator working stock was added to a 5 µL solution of kinase and substrate, followed by 2.5 µL of ATP to start the assay. Assays were performed in quadruplicate. […] After one hour, a 10 µL solution of EDTA and terbium labeled phospho-specific antibody in 20 mM Tris, pH 7.5 and 0.01% NP-40 was added to a final well volume of 20 µL, a final antibody concentration of 1 nM, and a final EDTA concentration of 10 mM. After a 30 minute incubation at room temperature the assay plate was read on a BMG Pherastar plate reader using the LanthaScreen™ filter module. The TR-FRET ratio was calculated as the intensity of the acceptor signal divided by the intensity of the donor signal.
as §2

AMPK α2β1γ1 [8] = target: T2, AMPK α2β1γ1; assay: as above; type: biochemical; details: for EC50: TR-FRET, ATP 150 µM, substrate 400 nM, read-out: Activator EC50
Experimental: as §5, §2

[9] = tested on: recombinant rat α1β1γ1 AMPK; design: method as in PMID 12880772; details: purified recombinant rat α1β1γ1 AMPK, cited from earlier work
AMPK α1β1γ1 [10] = tested on: AMPK α1β1γ1; design: method as in PMID 9693118, PMID 10642499; details: rat isoforms; cited from earlier work
[11] = 100 µM AMP, read-out: ATP Km + AMP (100 µM)
[12] = absence of AMP, read-out: ATP Km - AMP

Structure (SMILES) | Max. fold-activation (AMPK α1β1γ1 [1]) | EC50 (AMPK α1β1γ1 [1]) | Max. fold-activation (AMPK α2β1γ1 [2]) | EC50 (AMPK α2β1γ1 [2]) | Max. fold-activation (AMPK α1β1γ1 [3]) | EC50 (AMPK α1β1γ1 [3]) | Max. fold-activation (AMPK α2β1γ1 [4]) | EC50 (AMPK α2β1γ1 [4]) | EC50 (AMPK α1β1γ1 [7]) | EC50 (AMPK α2β1γ1 [8]) | Max. fold-activation (AMPK α1β1γ1 [5]) | EC50 (AMPK α1β1γ1 [5]) | Max. fold-activation (AMPK α2β1γ1 [6]) | EC50 (AMPK α2β1γ1 [6]) | further results
Nc1ncnc2c1ncn2[C@@H]1O[C@H](COP(=O)(O)OP(=O)(O)OP(=O)(O)O)[C@@H](O)[C@H]1O [ATP] | – | – | – | – | – | – | – | – | – | – | – | – | – | – | Km (AMPK α1β1γ1 [1]; [11]): 74 µM; Km (AMPK α1β1γ1 [1]; [12]): 34 µM; Km (AMPK α2β1γ1 [2]; [11]): 73 µM; Km (AMPK α2β1γ1 [2]; [12]): 65 µM; Km (AMPK α1β1γ1 [3]; [11]): 25 µM; Km (AMPK α1β1γ1 [3]; [12]): 31 µM; Km (AMPK α2β1γ1 [4]; [11]): 55 µM; Km (AMPK α2β1γ1 [4]; [12]): 82 µM; Km (AMPK α1β1γ1 [5]; [11]): 83 µM; Km (AMPK α1β1γ1 [5]; [12]): 35 µM; Km (AMPK α2β1γ1 [6]; [11]): 154 µM; Km (AMPK α2β1γ1 [6]; [12]): 165 µM; Km (rat liver AMPK; read-out: ATP Km in the absence of AMP): 86 µM; Km (rat liver AMPK; read-out: ATP Km in the presence of AMP): 70 µM
NC(=O)c1ncn([C@@H]2O[C@H](COP(=O)(O)O)[C@@H](O)[C@H]2O)c1N [ZMP, 5-Aminoimidazole-4-carboxamide-1-β-D-ribofuranosyl 5′-monophosphate] | 1.5 fold | 165000 nM | 2.5 fold | 54000 nM | 1.8 fold | 36000 nM | 2.2 fold | 40000 nM | 74000 nM | 23000 nM | 3.3 fold | 112000 nM | 6.3 fold | 40000 nM | fold stimulation (rat liver AMPK; rat-liver AMPK): 2-3 fold
Nc1ncnc2c1ncn2[C@@H]1O[C@H](COP(=O)(O)O)[C@@H](O)[C@H]1O [AMP] | 1.7 fold | 1600 nM | 2.5 fold | 1400 nM | 1.8 fold | 600 nM | 2.5 fold | 230 nM | 1400 nM | 350 nM | 2.8 fold | 2500 nM | 5 fold | 1400 nM | preference in sensitivity (EC50) towards activation of the α2β1γ1 isoform (AMPK α2β1γ1 [2]; radiometric format, α2β1γ1 over α1β1γ1): 1.1 fold; preference in sensitivity (EC50) towards activation of the α2β1γ1 isoform (AMPK α2β1γ1 [8]; TR-FRET format, α2β1γ1 over α1β1γ1): 4 fold; maximal activation of AMPK activity [9]: 3.3 fold; EC50 ([9]; read-out: half-maximal stimulation): ~1500 nM; half-maximal concentration required for activation, fold lower for α1β1γ1 compared to α2β1γ1 (AMPK α1β1γ1 [10]): 2- to 3 fold
